The values below come from ChEMBL document CHEMBL1201862, “PubChem BioAssay data set” (2004).

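Growth conditions: 96-well plates. Treatment: test compound, 48 hours, 5 concentrations. Analysis: linear interpolation between bracketing concentrations; unreached endpoints set to highest concentration. GI50 marks 50% less growth.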 Active and inactive are the calls of the source. Rule as the data show it: active = GI50 up to about 1.1 µM and inactive = higher.

Test systems include DMS-273; KM-20L2; SNB-78; RXF 631; HOP-18; DMS-114; DLD-1; LXFL 529; XF498.
Test in all cases: NCI tumour cell line growth inhibition, 48 h

In the case of `CCOC(=O)/C(=C\c1ccccc1)C(=O)CCN1CCOCC1`, the GI50 in the assay on DMS-273 was 10.4 µM (inactive); with KM-20L2, 9.89 µM (inactive); in the assay with SNB-78, 11.6 µM (inactive); in the assay on RXF 631, 11.3 µM (inactive); in the assay on HOP-18, 13.9 µM (inactive); with DMS-114, 4.92 µM (inactive). For the same compound, the GI50 is 2.43 µM (inactive) in the assay with DLD-1 and 1.84 µM (inactive) in the assay on LXFL 529.

Take `CC(=O)OCC1OC(NC(=S)N/N=C2\CC(c3ccccc3)Oc3ccccc32)C(OC(C)=O)C(OC(C)=O)C1OC(C)=O` (configuration not stated): the GI50 in the assay on DMS-273 is 56.8 µM (inactive); in the assay with KM-20L2 it was > 100 µM (inactive); with SNB-78, > 100 µM (inactive); in the assay with RXF 631, 32 µM (inactive); in the assay on HOP-18, > 100 µM (inactive); in the assay with DMS-114 it was > 100 µM (inactive). Further, the GI50 in the assay with XF498, in the assay on DLD-1 and in the assay on LXFL 529 was > 100 µM (inactive) each time.

Take `CC(Cl)(/C=C/Cl)C(Cl)/C=C/C(Cl)(CCl)CBr` (configuration not stated): the GI50 in the assay on DMS-273 is 3.63 µM (inactive); in the assay with KM-20L2, 5.22 µM (inactive); in the assay with SNB-78, 1.75 µM (inactive); in the assay with RXF 631 it was 1.91 µM (inactive); in the assay with HOP-18, 2.52 µM (inactive); in the assay with DMS-114, 1.96 µM (inactive). For the same compound, the results for the GI50 in the assay on DLD-1 and with LXFL 529 were 2.47 µM (inactive) and 1.22 µM (inactive), respectively.

As to `O=c1oc2ccccc2c(O)c1C(C/C(CCN1CCCC1)=N/O)c1ccccc1` (configuration not stated), the GI50 in the assay on KM-20L2, with RXF 631, in the assay on DMS-114, in the assay on XF498, in the assay with DLD-1 and in the assay on LXFL 529 was > 100 µM (inactive) in each case.

As for `CCOC(=O)C1=C(C)N(Cc2ccccc2)C(C)=C(C(=O)OCC)C1c1ccccc1O`, the GI50 in the assay with DMS-273 is 32.7 µM (inactive); with KM-20L2, 41 µM (inactive); in the assay with RXF 631, 22.5 µM (inactive); in the assay on HOP-18, 44.2 µM (inactive); in the assay with DMS-114, 17.9 µM (inactive); in the assay with XF498, 21.5 µM (inactive). Moreover, the figures for the GI50 with DLD-1 and in the assay on LXFL 529 were 27.9 µM (inactive) and 26.5 µM (inactive), respectively.

For the compound `O=C1c2ccccc2C2(Br)C(=O)c3ccccc3C12` (configuration not stated), the GI50 in the assay with DMS-273 was 19.6 µM (inactive); with KM-20L2, > 100 µM (inactive); with RXF 631 it was 10.4 µM (inactive); with HOP-18, > 100 µM (inactive); with DMS-114 it was > 100 µM (inactive); with DLD-1, > 100 µM (inactive). In the assay with LXFL 529, the GI50 is > 100 µM (inactive).

As for `COc1cc(C(=O)C/C(CCC(=O)Nc2ccccc2[N+](=O)[O-])=N\NC(=O)CC#N)ccc1O`, the GI50 in the assay on DMS-273, with KM-20L2, in the assay with RXF 631, in the assay on HOP-18, in the assay on XF498 and in the assay with DLD-1 was > 100 µM (inactive) throughout. For the same compound, in the assay on LXFL 529, the GI50 is > 100 µM (inactive).

Regarding `CC(C(=O)O)/C(=C\c1ccc2c(c1)OCO2)C(=O)O` (configuration not stated), the GI50 with DMS-273, in the assay with KM-20L2, with RXF 631, in the assay with HOP-18, in the assay with DMS-114 and in the assay with XF498 was > 100 µM (inactive) throughout. The GI50 in the assay with DLD-1 and in the assay on LXFL 529 was > 100 µM (inactive) in each case.

With `CCN(CC)CCNc1ccc2ncn3c4ccc(OC)cc4c(=O)c1c23`, the GI50 in the assay on DMS-273 was 1.67 µM (inactive); with KM-20L2 it was 0.964 µM (active); in the assay with SNB-78, 14 µM (inactive); in the assay on RXF 631 it was 1.61 µM (inactive); with HOP-18, 17 µM (inactive); with DMS-114, 11.5 µM (inactive). The GI50 with XF498 is 5.02 µM (inactive); with DLD-1, 1.08 µM (active); in the assay on LXFL 529, 2.46 µM (inactive).

In the case of `COc1cc(Br)c(/C=N\c2cccc3cc(OC)c(OC)cc23)cc1OC`, the GI50 was 43.4 µM (inactive) in the assay on DMS-273; 55.6 µM (inactive) with KM-20L2; 55.8 µM (inactive) in the assay on SNB-78; 50.5 µM (inactive) with RXF 631; > 100 µM (inactive) in the assay on HOP-18; 17.2 µM (inactive) with DMS-114. Besides, the GI50 in the assay with DLD-1 is 43.4 µM (inactive); in the assay with LXFL 529, 25.9 µM (inactive).

For `O=C1CC(C[C@H](O)C2CCCCC2O)CC(=O)N1Cc1ccccc1` (some centres not stated), the GI50 in the assay with DMS-273, in the assay on KM-20L2, in the assay on SNB-78, in the assay with RXF 631, in the assay on HOP-18 and in the assay with XF498 was > 100 µM (inactive) throughout. Moreover, the GI50 in the assay with DLD-1 and in the assay with LXFL 529 was > 100 µM (inactive) throughout.

Turning to `C[N+]1(C)C/C(=C\c2ccccc2)C(=O)/C(=C/c2ccccc2)C1`, the GI50 is 37.5 µM (inactive) with DMS-273; > 100 µM (inactive) in the assay with KM-20L2; > 100 µM (inactive) in the assay with SNB-78; > 100 µM (inactive) in the assay on RXF 631; > 100 µM (inactive) in the assay on HOP-18; 39.5 µM (inactive) with DMS-114. In addition, the GI50 in the assay on XF498 is > 100 µM (inactive); in the assay on DLD-1, > 100 µM (inactive); in the assay with LXFL 529 it was 70.1 µM (inactive).

As for `c1ccc(C2CC(c3ccc4ccccc4c3)=Nc3ccccc3S2)cc1` (configuration not stated), the GI50 in the assay with DMS-273 is 21.3 µM (inactive); in the assay on KM-20L2, 18.3 µM (inactive); in the assay on SNB-78, 18.6 µM (inactive); in the assay with RXF 631, 24.3 µM (inactive); in the assay on HOP-18 it was 19.4 µM (inactive); in the assay with XF498, 17.4 µM (inactive). The figures for the GI50 in the assay with DLD-1 and with LXFL 529 were > 10 µM (inactive) and 14.5 µM (inactive), respectively.

As for `CN(C)CCNC(=O)c1cccc2nc3ccc4ccccc4c3nc12`, the GI50 in the assay on DMS-273 was 0.0362 µM (active); in the assay with SNB-78, 0.138 µM (active); in the assay with RXF 631 it was 0.0405 µM (active); with HOP-18, 0.197 µM (active); with DMS-114, 0.121 µM (active); in the assay with DLD-1, 0.047 µM (active).

Consider `CC(=O)O/C(C)=C\C(=O)O/N=C(\N)c1ccc(C)cc1`, for which the GI50 is 28.4 µM (inactive) in the assay on DMS-273; 33.7 µM (inactive) in the assay on KM-20L2; 21.1 µM (inactive) in the assay with SNB-78; 22.5 µM (inactive) in the assay on RXF 631; 26.2 µM (inactive) with HOP-18; 18.8 µM (inactive) with DMS-114. Also, the GI50 with XF498 is 23.9 µM (inactive); in the assay on DLD-1, 18.9 µM (inactive); in the assay with LXFL 529, 19.5 µM (inactive).

Regarding `COc1cc(C2c3cc4c(cc3[C@@H](Nc3ccc5c(c3)OCCO5)C3COC(=O)[C@H]23)OCO4)cc(OC)c1O` (some centres not stated), the GI50 with DMS-273 is 0.109 µM (active); with KM-20L2, 0.745 µM (active); in the assay on SNB-78, 1.84 µM (inactive); with RXF 631, 0.273 µM (active); in the assay on HOP-18, 3.98 µM (inactive); in the assay on DMS-114, 0.303 µM (active). The GI50 in the assay with XF498 was 0.525 µM (active); in the assay with DLD-1, 0.692 µM (active); in the assay with LXFL 529 it was 3.44 µM (inactive).
